Reference: US8383655B2, “Modulators of pharmacokinetic properties of therapeutics” (Gilead Sciences, Inc., priority 2006, dated 2013)

Tested on: HIV-1 strain IIIB
Assay: Anti-HIV-1 cell culture assay (EC50), XTT cytopathic effect
Assay type: cell-based
Details: Human immunodeficiency virus 1, 120 h; MT2 cells infected with wild-type HIV-1 IIIB, 5 days; read-out: protease inhibition activity represented by HIV EC50

- EC50: > 20 µM
Structure (SMILES): CC(C)c1nc(CN(C)C(=O)N[C@@H](CCN2CCOCC2)C(=O)N[C@H](CC[C@H](Cc2ccccc2)NC(=O)OCc2cncs2)Cc2ccccc2)cs1 [Example S]
